Tests used:
[1] = system: C. difficile; experiment: C. difficile-infected hamster survival study; type: in vivo
Protocol: Animal studies were performed to determine the efficacy of MetRS inhibitors for treating C. difficile-infections. The MetRS inhibitors tested were 5-[3-((R)-6,8-Dibromo-chroman-4-ylamino)-propylamino]-4H-thieno[3,2-b]pyridine-7-one (both racemic mixture and the R enantiomer) and 5-[3-((R)-8-Bromo-6-chloro-chroman-4-ylamino)-propylamino]-4H-thieno[3,2-b]pyridin-7-one. Also tested was 2-(3-{3,5-Dibromo-2-[2-(4-methyl-thiazol-5-yl)-ethoxy]-benzylamino}-propylamino)-1H-quinolin-4-one.
Results were compared to C. difficile-infected hamsters treated with the conventional antibiotic, vancomycin. Infected hamsters were treated with either a solution or suspension of a MetRS inhibitor at 5 to 50 mg/kg or vancomycin at 2.5, 5 or 25 mg/kg. There were eight hamsters per group with the final endpoint of the experiment being survival. Expired hamsters were examined for GI condition.

[2] = system: C. difficile; experiment: Sporulation of C. difficile clinical isolates on agar containing compound; type: cell-based

CN[C@H](CC(C)C)C(=O)N[C@H]1C(=O)N[C@@H](CC(N)=O)C(=O)N[C@H]2C(=O)N[C@H]3C(=O)N[C@H](C(=O)N[C@H](C(=O)O)c4cc(O)cc(O)c4-c4cc3ccc4O)[C@H](O)c3ccc(c(Cl)c3)Oc3cc2cc(c3O[C@@H]2O[C@H](CO)[C@@H](O)[C@H](O)[C@H]2O[C@H]2C[C@](C)(N)[C@H](O)[C@H](C)O2)Oc2ccc(cc2Cl)[C@H]1O [vancomycin, reference compound]
survival on Day 28 ([1]; vancomycin treatment, dose not given in the sentence (2.5, 5 or 25 mg/kg used)): 0-10%

Cc1ncc([N+](=O)[O-])n1CCO [metronidazole, reference compound]
spores (share of total cells) ([2]; subMIC concentrations, all tested strains): up to 100%

O=c1cc(NCCCN[C@@H]2CCOc3c(Br)cc(Br)cc32)[nH]c2ccsc12 [5-[3-((R)-6,8-Dibromo-chroman-4-ylamino)-propylamino]-4H-thieno[3,2-b]pyridine-7-one]
survival on Day 28 ([1]; 5 mg/kg BID): > 60%
efficacy ranking among the MetRS inhibitors tested ([1]; hamster, in vivo): best efficacy
spores (share of total cells) ([2]; 0.25×MIC, 96 hours, all strains): < 2%
spores (share of total cells) ([2]; 0.5×MIC, 96 hours, all strains): < 1%

— US7994192B2, “Substituted thienopyridone compounds with antibacterial activity” (Crestone, Inc., priority 2006, dated 2011)
